{"source": "ChEMBL document CHEMBL5230107", "about": "“Anticancer boron-containing prodrugs responsive to oxidative stress from the tumor microenvironment” (Eur J Med Chem, 2020)", "key": {"B16-F10 [1]": {"test_system": "B16-F10", "experiment": "Antiproliferative activity against mouse B16-F10 cells assessed as reduction in cell viability at 100 uM", "format": "functional"}, "HeLa [2]": {"test_system": "HeLa", "experiment": "Antiproliferative activity against human HeLa cells assessed as reduction in cell viability at 100 uM", "format": "functional"}, "B16-F10 [3]": {"test_system": "B16-F10", "experiment": "Antitumor activity against mouse B16-F10 cells implanted in mouse assessed as increase in survival time at 0.25 mg/kg, po", "format": "functional"}, "MCF7 [4]": {"test_system": "MCF7", "experiment": "Antitumor activity against human MCF7 cells xenografted in mouse assessed as tumor regression at 5 mg/kg, po", "format": "functional"}, "U-937": {"test_system": "U-937", "experiment": "Antiproliferative activity against human U-937 cells assessed as reduction in cell viability", "format": "functional"}, "MV4-11": {"test_system": "MV4-11", "experiment": "Antiproliferative activity against human MV4-11 cells assessed as reduction in cell viability", "format": "functional"}, "MIA PaCa-2": {"test_system": "MIA PaCa-2", "experiment": "Cytotoxicity against human MIA PaCa-2 cells assessed as inhibition of cell growth measured after 72 hrs by MTS assay", "format": "functional, cell-based", "details": "MIA PaCa-2, 72 h"}, "NCI-H1993": {"test_system": "NCI-H1993", "experiment": "Cytotoxicity against human NCI-H1993 cells assessed as inhibition of cell growth", "format": "functional, cell-based"}, "DU-145 [5]": {"test_system": "DU-145", "experiment": "Antiproliferative activity against human DU-145 cells assessed as reduction in cell viability", "format": "functional, cell-based"}, "NIH3T3 [6]": {"test_system": "NIH3T3", "experiment": "Antiproliferative activity against mouse NIH3T3 cells assessed as reduction in cell viability", "format": "functional, cell-based"}, "DU-145 [7]": {"test_system": "DU-145", "experiment": "Antitumor activity against human DU-145 cells implanted in mouse assessed as reduction in tumor volume at 2 mg/kg, po", "format": "functional", "set-up": "scale not given: the % may be the effect or the level left"}, "4T1 [8]": {"test_system": "4T1", "experiment": "Cytotoxicity against mouse 4T1 cells assessed as reduction in cell viability", "format": "functional, cell-based"}, "NIH3T3 [9]": {"test_system": "NIH3T3", "experiment": "Cytotoxicity against mouse NIH3T3 cells assessed as reduction in cell viability", "format": "functional, cell-based"}, "4T1 [10]": {"test_system": "4T1", "experiment": "Antitumor activity against mouse 4T1 cells implanted in mouse assessed as reduction in tumor volume at 37 mg/kg, iv", "format": "functional", "set-up": "scale not given: the % may be the effect or the level left"}, "[11]": {"experiment": "Antiproliferative activity against human U-87 MG cells assessed as reduction in cell viability", "format": "functional, cell-based, U-87MG ATCC"}, "SR": {"test_system": "SR", "experiment": "Antiproliferative activity against human SR cells assessed as growth inhibition at 10 uM relative to control", "format": "functional", "set-up": "scale not given: the % may be the effect or the level left"}, "NCI-H460": {"test_system": "NCI-H460", "experiment": "Antiproliferative activity against human NCI-H460 cells assessed as growth inhibition at 10 uM relative to control", "format": "functional", "set-up": "scale not given: the % may be the effect or the level left"}, "MCF7 [12]": {"test_system": "MCF7", "experiment": "Antitumor activity against human MCF7 cells xenografted in BALB/c nude mouse assessed as tumor growth inhibition at 10 mg/kg, iv", "format": "functional", "details": "read-out: TGI"}, "[13]": {"experiment": "Cytotoxicity against human MRC5 cells assessed as reduction in cell viability by Almar Blue stained fluorescence-based assay", "format": "toxicity"}, "HeLa [14]": {"test_system": "HeLa", "experiment": "Cytotoxicity against human HeLa cells assessed as inhibition of cell growth", "format": "functional, cell-based"}, "HL-60": {"test_system": "HL-60", "experiment": "Cytotoxicity against human HL-60 cells assessed as inhibition of cell growth", "format": "functional, cell-based"}, "A549": {"test_system": "A549", "experiment": "Cytotoxicity against human A549 cells assessed as reduction in cell viability by Almar Blue stained fluorescence-based assay", "format": "functional"}, "HeLa [15]": {"test_system": "HeLa", "experiment": "Cytotoxicity against human HeLa cells assessed as reduction in cell viability by Almar Blue stained fluorescence-based assay", "format": "functional"}, "MDA-MB-231": {"test_system": "MDA-MB-231", "experiment": "Cytotoxicity against human MDA-MB-231 cells assessed as reduction in cell viability by Almar Blue stained fluorescence-based assay", "format": "functional"}, "[16]": {"test_system": "Panel NCI-60 (60 carcinoma cell lines)", "experiment": "Cytotoxicity against human Panel NCI-60 (60 carcinoma cell lines)", "format": "functional, cell-based"}, "PSN1": {"test_system": "PSN1", "experiment": "Antiproliferative activity against human PSN1 cells assessed as reduction in cell viability measured for 72 hrs by CCK-8 assay", "format": "functional, cell-based", "details": "PSN1, 72 h"}, "BXPC-3": {"test_system": "BXPC-3", "experiment": "Antiproliferative activity against human BXPC-3 cells assessed as reduction in cell viability measured for 72 hrs by CCK-8 assay", "format": "functional, cell-based", "details": "BXPC-3, 72 h"}, "[17]": {"experiment": "Antiproliferative activity against human Nasopharyngeal carcinoma cell line assessed as reduction in cell viability measured for 72 hrs by CCK-8 assay", "format": "functional, cell-based"}}, "data": [{"smiles": "CC[C@@]1(O)C(=O)OCc2c1cc1n(c2=O)Cc2cc3cc(OC(=O)OCc4cc5ccc(B(O)O)cc5oc4=O)ccc3nc2-1", "values": [{"measurement": "Activity", "setting": "B16-F10 [1]", "value": 60, "unit": "%"}, {"measurement": "Activity", "setting": "HeLa [2]", "value": 60, "unit": "%"}, {"measurement": "Time", "setting": "B16-F10 [3]", "value": 1, "unit": "days"}]}, {"smiles": "COc1cccc2c1C(=O)c1c(O)c3c(c(O)c1C2=O)C[C@@](O)(C(=O)CO)C[C@@H]3O[C@H]1C[C@H](NC(=O)OCc2ccc(B3OC(C)(C)C(C)(C)O3)cc2)[C@H](O)[C@H](C)O1", "values": [{"measurement": "Activity", "setting": "MCF7 [4]", "value": 30, "unit": "%"}]}, {"smiles": "O=C(CCCCCCC(=O)Nc1ccccc1)NO", "note": "[VORINOSTAT]", "values": [{"measurement": "Activity", "setting": "U-937", "value": 20, "unit": "%"}, {"measurement": "Activity", "setting": "MV4-11", "value": 20, "unit": "%"}]}, {"smiles": "COc1cccc2c1C(=O)c1c(O)c3c(c(O)c1C2=O)C[C@@](O)(C(=O)CO)C[C@@H]3O[C@H]1C[C@H](N)[C@H](O)[C@H](C)O1", "note": "[DOXORUBICIN]", "values": [{"measurement": "IC50", "setting": "MIA PaCa-2", "value": 200, "unit": "nM"}, {"measurement": "Activity", "setting": "MCF7 [4]", "value": 50, "unit": "%"}]}, {"smiles": "C[C@@H](Oc1cc(-c2cnn(C3CCNCC3)c2)cnc1N)c1c(Cl)ccc(F)c1Cl", "note": "[CRIZOTINIB]", "values": [{"measurement": "IC50", "setting": "NCI-H1993; Homo sapiens, NCI-H1993, read-out: IC50", "value": 3000, "unit": "nM"}]}, {"smiles": "CC1(COC(=O)OCc2ccc(B3OCCCO3)cc2)COC(/C=C/c2ccccc2)OC1", "note": "(centres undefined)", "values": [{"measurement": "IC50", "setting": "DU-145 [5]", "value": 48000, "unit": "nM"}, {"measurement": "IC50", "setting": "NIH3T3 [6]", "value": 182000, "unit": "nM"}, {"measurement": "Activity", "setting": "DU-145 [7]", "value": 75, "unit": "%"}]}, {"smiles": "CC[C@@]1(O)C(=O)OCc2c1cc1n(c2=O)Cc2cc3cc(O)ccc3nc2-1", "note": "[HYDROXYCAMPTOTHECIN]", "values": [{"measurement": "Activity", "setting": "B16-F10 [1]", "value": 60, "unit": "%"}, {"measurement": "Activity", "setting": "HeLa [2]", "value": 60, "unit": "%"}]}, {"smiles": "CCN(CC)C(=S)SCc1ccc(B2OC(C)(C)C(C)(C)O2)cc1", "values": [{"measurement": "IC50", "setting": "4T1 [8]", "value": 1000, "unit": "nM"}, {"measurement": "IC50", "setting": "NIH3T3 [9]", "value": 6000, "unit": "nM"}, {"measurement": "Activity", "setting": "4T1 [10]", "value": 80, "unit": "%"}]}, {"smiles": "O=C(CCCCCCC(=O)Nc1ccccc1)NOCc1ccc(B(O)O)cc1", "values": [{"measurement": "Activity", "setting": "U-937", "value": 20, "unit": "%"}, {"measurement": "Activity", "setting": "MV4-11", "value": 20, "unit": "%"}]}, {"smiles": "CC[C@@]1(O)C(=O)OCc2c1cc1n(c2=O)Cc2cc3ccccc3nc2-1", "note": "[CAMPTOTHECIN]", "values": [{"measurement": "IC50", "setting": "[11]", "value": 250, "unit": "nM"}]}, {"smiles": "CC1(C)OB(c2ccc(C[N+](C)(CCCl)CCCl)cc2)OC1(C)C.[Br-]", "values": [{"measurement": "Activity", "setting": "SR", "value": 85, "unit": "%"}, {"measurement": "Activity", "setting": "NCI-H460", "value": 85, "unit": "%"}]}, {"smiles": "CC(=O)O[C@H]1C(=O)[C@@]2(C)[C@H]([C@H](OC(=O)c3ccccc3)[C@]3(O)C[C@H](OC(=O)[C@H](O)[C@@H](NC(=O)c4ccccc4)c4ccccc4)C(C)=C1C3(C)C)[C@]1(OC(C)=O)CO[C@@H]1C[C@@H]2O", "note": "[PACLITAXEL]", "values": [{"measurement": "inhibition in vivo at 10 mg/kg", "setting": "MCF7 [12]", "value": 60, "unit": "%"}, {"measurement": "IC50", "setting": "[13]", "value": 25000, "unit": "nM"}]}, {"smiles": "COc1cccc2c1C(=O)c1c(O)c3c(c(O)c1C2=O)C[C@@](O)(C(=O)CO)C[C@@H]3O[C@H]1C[C@H](NCC(=O)OCc2cc(C)cc(COC(=O)c3ccc(C(=C(c4ccccc4)c4ccccc4)c4ccccc4)cc3)c2OCc2ccc(B3OC(C)(C)C(C)(C)O3)cc2)[C@H](O)[C@H](C)O1", "values": [{"measurement": "IC50", "setting": "HeLa [14]", "value": 2000, "unit": "nM"}]}, {"smiles": "CN(Cc1cnc2nc(N)nc(NC(=O)OCc3ccc(B(O)O)cc3)c2n1)c1ccc(C(=O)N[C@H](CCC(=O)O)C(=O)O)cc1", "values": [{"measurement": "IC50", "setting": "HL-60", "value": 50, "unit": "nM"}]}, {"smiles": "C[C@@H](Oc1cc(-c2cnn(C3CCNCC3)c2)cnc1NC(=O)OCc1ccc(B(O)O)cc1)c1c(Cl)ccc(F)c1Cl", "values": [{"measurement": "IC50", "setting": "NCI-H1993", "value": 3000, "unit": "nM"}]}, {"smiles": "CCN(CC)/[N+]([O-])=N/OCc1cc2ccc(B3OC(C)(C)C(C)(C)O3)cc2oc1=O", "values": [{"measurement": "IC50", "setting": "A549", "value": 10000, "unit": "nM"}, {"measurement": "IC50", "setting": "HeLa [15]", "value": 10000, "unit": "nM"}, {"measurement": "IC50", "setting": "MDA-MB-231", "value": 10000, "unit": "nM"}]}, {"smiles": "COc1cc(CBr)c(B2OC(C)(C)C(C)(C)O2)c(CBr)c1", "values": [{"measurement": "IC50", "setting": "[16]", "value": 10000, "unit": "nM"}]}, {"smiles": "Nc1ccn([C@@H]2O[C@H](CO)[C@@H](O)C2(F)F)c(=O)n1", "note": "[GEMCITABINE]", "values": [{"measurement": "IC50", "setting": "PSN1", "value": 5, "unit": "nM"}, {"measurement": "IC50", "setting": "BXPC-3", "value": 5, "unit": "nM"}, {"measurement": "IC50", "setting": "[17]", "value": 5, "unit": "nM"}]}]}
